{
  "source": "paper PMC12254266",
  "about": "“Multicolored sequential resonance energy transfer for detection of simultaneous ligand binding at G protein-coupled receptors” (Nature Communications, 2025)",
  "key": {"[1]": {"target": "FFA1 (Homo sapiens, UniProt O14842)", "sequence (O14842 whole entry)": "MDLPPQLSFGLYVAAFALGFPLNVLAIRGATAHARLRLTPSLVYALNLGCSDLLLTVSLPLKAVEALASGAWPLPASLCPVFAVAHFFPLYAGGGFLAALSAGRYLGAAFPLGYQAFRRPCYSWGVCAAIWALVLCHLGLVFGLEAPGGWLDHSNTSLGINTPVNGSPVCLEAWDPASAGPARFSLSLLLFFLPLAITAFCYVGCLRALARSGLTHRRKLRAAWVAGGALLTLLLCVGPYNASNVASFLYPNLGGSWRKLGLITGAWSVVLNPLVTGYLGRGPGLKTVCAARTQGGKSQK", "assay": "NanoBiT arrestin-3 recruitment in HEK293T cells", "type": "cell-based", "design": "expressed in transfected cells; host or cells: HEK293T, transient", "conditions": "for EMax (% TUG-905) arrestin-3 recruitment: percentage of the response to 10 μM TUG-905; for EMax (% TUG-905) arrestin-3 recruitment / pEC50 arrestin-3 recruitment: ± SEM; for pEC50 arrestin-3 recruitment: N=3; for Arrestin recruitment (% TUG-905): technical duplicate", "description": "For arrestin-3 recruitment assays, HEK293T cells were transfected with FFA1 receptor and a bystander NanoBiT split luciferase arrestin-3 recruitment biosensor. Cells were transfected and plated simultaneously in a reverse transfection protocol into a poly-D-lysine coated white 96-well plate. Per well, 60,000 cells were transfected with 5 ng plasmid expressing LgBiT with a N-terminal Lyn11 plasma membrane localisation tag, 5 ng plasmid expressing bovine arrestin-3 fused at its N-terminal to SmBiT tag and 30 ng plasmid expressing the human FFA1 receptor. Total DNA was made up to 100 ng total/well with empty pcDNA3 vector and transfected to cell suspension with 0.6 µg/well PEI. Following transfection cells were cultured for 24 h before use. On the day of assay, cells were washed twice with HBSS and incubated in HBSS for 30 min at 37 °C. NanoGlo substrate was added at a final 1:800 dilution and incubated in the dark for 10 min at 37 °C. […] Raw luminescence values were divided by baseline signal (average of first 5 data points prior to compound addition) and vehicle measurements subtracted from agonist treatment. Area under curves were calculated and concentration response curves plotted."}, "[2]": {"target": "T1, FFA1-Nluc (Homo sapiens, UniProt O14842)", "T1 sequence (O14842 whole entry)": "as above", "assay": "DISCo-BRET (endpoint, spectra scan, kinetics) with TUG-2591 and TUG-2597 at C terminal Nluc tagged FFA1", "type": "binding", "design": "expressed in transfected cells", "conditions": "for Specific BRET (540/450): Sup Fig 3Bii, TUG-2591 0 nM; for Kd: TUG-2597 after TUG-2591 pre-treatment; for Specific BRET (540/450), % of control: Figure 4Bii, single replicate values (technical duplicate)", "method_in_brief": "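After Nano-Glo substrate (1:800 final), ligand-treated FFA1-Nluc or Nluc-FFA1 cells, doxycycline-induced (100 ng/mL), were read. Kinetic association/dissociation runs were at 25 °C; endpoint and 440–740 nm spectra came after 5 min at 37 °C. Non-specific signal came from competing ligands at high concentration.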"}, "[3]": {"target": "T1, FFA1-Nluc", "assay": "Bystander BRET internalisation assay, FFA1-Nluc in HEK293T cells", "type": "cell-based", "design": "expressed in transfected cells; host or cells: HEK293T (ATCC, CRL-3216), transient", "conditions": "in words; up to 60 min", "description": "Cells were transfected using a reverse transfection protocol while plating into a poly-D-lysine coated white 96-well plates. Cells were plated at 60,000 cells with 100 ng of plasmid DNA and 0.6 µg of polyethyleneimine (PEI) per well. Cells were cultured for 24 h before washing with HBSS and incubating in HBSS at 37 °C for 30 min. NanoGlo substrate was added a final 1:800 dilution and plates incubated for 10 min at 37 °C. […] After 5 min of baseline measurements, readings were paused and test compounds added to the plate."}, "[4]": {"conditions": "TUG-2591 100 nM + TUG-2597 […], displacing ligand T360 10 μM"}, "[5]": {"conditions": "TUG-2597 […] after TUG-2591 pre-treatment (Sup. Fig. 10A)"}, "[6]": {"conditions": "based on the value calculated in Supplementary Table 4"}, "[7]": {"conditions": "tracers 1.0 μΜ / 3.16 μΜ, displacing ligand T360 (30 μM)"}},
  "note": "“And” between values parts separate entries of the source, which are not always exact repeats. Equal values may be shown once. Read-outs that look alike come from different tables or passages of the source.",
  "data": [
    {"smiles": "COc1ccc(C(=O)N(CC(C)(C)CNc2ccc([N+](=O)[O-])c3nonc23)c2cccc(C)n2)c(N2CCC(COc3cccc(C(CC(=O)O)C4CC4)c3)CC2)c1.O=C(O)C(F)(F)F", "note": "(stereo not shown) [TUG-2597]", "values": [
      {"measurement": "EMax (% TUG-905) arrestin-3 recruitment", "setting": "[1]", "result": "60 ± 6", "unit": "%"},
      {"measurement": "pEC50 arrestin-3 recruitment", "setting": "[1]", "result": "8.5 ± 0.3"},
      {"measurement": "Specific BRET (540/450)", "setting": "[2]; TUG-2597 + TUG-905", "result": "0.2651 and 0.2434 and 0.2485 and 0.2471 and 0.2191 and 0.2108"},
      {"measurement": "Specific BRET (540/450)", "setting": "[2]; TUG-2597 alone", "result": "0.1932 and 0.1879 and 0.1690 and 0.1361 and 0.1137 and 0.1169"},
      {"measurement": "kOff DISCo-BRET NBD/Nluc", "setting": "[2]; [4]", "result": 0.004, "unit": "s⁻¹"},
      {"measurement": "kOff DISCo-BRET SulfoCy5/NBD", "setting": "[2]; [4]", "result": 0.0045, "unit": "s⁻¹"},
      {"measurement": "kOff DISCo-BRET NBD/Nluc", "setting": "[2]; TUG-2591 100 nM + TUG-2597 […], displacing ligands TUG-905 and T360 10 μM each", "result": 0.00367, "unit": "s⁻¹"},
      {"measurement": "kOn DISCo-BRET NBD/Nluc", "setting": "[2]; [5]", "result": 31666.67, "unit": "M⁻¹ s⁻¹"},
      {"measurement": "kOn DISCo-BRET SulfoCy5/NBD", "setting": "[2]; [5]", "result": 28333.33, "unit": "M⁻¹ s⁻¹"},
      {"measurement": "Kd", "setting": "[2]; read-out: Kd DISCo-BRET NBD/Nluc (kinetic)", "result": 130, "unit": "nM"},
      {"measurement": "Kd", "setting": "[2]; read-out: Kd DISCo-BRET SulfoCy5/NBD (kinetic)", "result": 140, "unit": "nM"},
      {"measurement": "kOff DISCo-BRET NBD/Nluc", "setting": "[2]; [6]", "result": 0.004, "unit": "s⁻¹"},
      {"measurement": "kOff DISCo-BRET SulfoCy5/NBD", "setting": "[2]; [6]", "result": 0.004, "unit": "s⁻¹"},
      {"measurement": "off rate from DISCo-BRET binding studies", "setting": "[2]; range depending on which tracer concentration was used (author rebuttal)", "result": "0.18-0.27"},
      {"measurement": "kOff DISCo-BRET NBD/Nluc", "setting": "[2]; [7]", "result": 0.004, "unit": "s⁻¹"},
      {"measurement": "kOff DISCo-BRET SulfoCy5/NBD", "setting": "[2]; [7]", "result": 0.003, "unit": "s⁻¹"},
      {"measurement": "kOff DISCo-BRET NBD/Nluc", "setting": "[2]; tracers 1.0 μΜ / 3.16 μΜ, displacing ligands TUG-905 and T360 (30 μM each)", "result": 0.00667, "unit": "s⁻¹"},
      {"measurement": "internalization of FFA1-Nluc", "setting": "[3]", "result": "No internalization"}
    ]},
    {"smiles": "COc1ccc(CCCC(C)(C)C)c(N2CCC(COc3cccc(C(CC(=O)O)C4CC4)c3)CC2)c1.O=C(O)C(F)(F)F", "note": "(stereo not shown) [T360]", "values": [
      {"measurement": "Arrestin recruitment (% TUG-905)", "setting": "[1]; log[Ligand] -7", "result": "60.5575 % TUG-905 and 49.7987 % TUG-905 and 50.2806 % TUG-905 and 80.5606 % TUG-905 and 71.6469 % TUG-905 and 70.6208 % TUG-905"},
      {"measurement": "Arrestin recruitment (% TUG-905)", "setting": "[1]; log[ligand] -6", "result": "47.2004 % TUG-905 and 63.2995 % TUG-905 and 73.3709 % TUG-905 and 81.6896 % TUG-905 and 75.2182 % TUG-905 and 56.718 % TUG-905"},
      {"measurement": "Arrestin recruitment (% TUG-905)", "setting": "[1]; log[ligand] -6.5", "result": "57.9984 % TUG-905 and 49.7595 % TUG-905 and 71.7903 % TUG-905 and 68.6055 % TUG-905 and 72.4316 % TUG-905 and 77.5018 % TUG-905"},
      {"measurement": "Arrestin recruitment (% TUG-905)", "setting": "[1]; log[ligand] -7.5", "result": "57.0191 % TUG-905 and 67.1382 % TUG-905 and 59.7164 % TUG-905 and 62.616 % TUG-905 and 83.9201 % TUG-905 and 49.002 % TUG-905"},
      {"measurement": "EMax (% TUG-905) arrestin-3 recruitment", "setting": "[1]", "result": "66 ± 8", "unit": "%"},
      {"measurement": "pEC50 arrestin-3 recruitment", "setting": "[1]", "result": "8.9 ± 0.4"},
      {"measurement": "pIC50 DISCo-BRET NBD/Nluc", "setting": "[2]; 100 nM TUG-2591 and […] TUG-2597, NC = No competition", "result": "7.1±0.2"},
      {"measurement": "pIC50 DISCo-BRET SulfoCy5/NBD", "setting": "[2]; 100 nM TUG-2591 and […] TUG-2597, one site model, NC = No competition", "result": "7.6±0.1"},
      {"measurement": "Specific BRET (540/450), % of control", "setting": "[2]; log[Ligand] -5", "result": "1.63 % of control and 7.70 % of control and -6.77 % of control and 6.77 % of control and -12.97 % of control and -14.56 % of control and 1.39 % of control and 12.17 % of control and -49.44 % of control and -45.86 % of control and -1.49 % of control and 1.49 % of control and 11.42 % of control and 8.60 % of control"},
      {"measurement": "Specific BRET (540/450), % of control", "setting": "[2]; log[Ligand] -5.5", "result": "30.05 % of control and 22.50 % of control and 2.63 % of control and 15.04 % of control and 41.18 % of control and 27.53 % of control and 25.39 % of control and 35.48 % of control and -24.38 % of control and -7.83 % of control and -19.08 % of control and -0.74 % of control and 16.94 % of control and 11.73 % of control"},
      {"measurement": "Specific BRET (540/450), % of control", "setting": "[2]; log[Ligand] -6", "result": "30.79 % of control and 26.05 % of control and 32.33 % of control and 27.63 % of control and 21.16 % of control and 17.29 % of control and 31.30 % of control and 14.26 % of control and 23.94 % of control and -20.81 % of control and -12.14 % of control and 8.18 % of control and 24.56 % of control and 26.12 % of control"},
      {"measurement": "Specific BRET (540/450), % of control", "setting": "[2]; log[Ligand] -6.5", "result": "56.11 % of control and 56.70 % of control and 19.92 % of control and 23.50 % of control and 31.40 % of control and 51.88 % of control and 45.22 % of control and 38.96 % of control and 25.28 % of control and 31.99 % of control and -27.26 % of control and -0.25 % of control and 41.03 % of control and 36.03 % of control"},
      {"measurement": "Specific BRET (540/450), % of control", "setting": "[2]; log[Ligand] -7", "result": "69.58 % of control and 52.70 % of control and 27.26 % of control and 51.32 % of control and 37.09 % of control and 73.27 % of control and 43.13 % of control and 45.22 % of control and 35.12 % of control and 64.21 % of control and 2.48 % of control and 20.07 % of control and 56.78 % of control and 46.56 % of control"},
      {"measurement": "Specific BRET (540/450), % of control", "setting": "[2]; log[Ligand] -8", "result": "90.01 % of control and 86.45 % of control and 67.29 % of control and 72.37 % of control and 95.79 % of control and 112.63 % of control and 106.43 % of control and 144.35 % of control and 71.81 % of control and 80.31 % of control and 48.08 % of control and 68.65 % of control and 78.15 % of control and 70.13 % of control"},
      {"measurement": "Specific BRET (540/450), % of control", "setting": "[2]; log[Ligand] -9", "result": "104.22 % of control and 94.30 % of control and 79.70 % of control and 92.67 % of control and 141.30 % of control and 86.46 % of control and 144.00 % of control and 157.22 % of control and 122.37 % of control and 108.50 % of control and 74.10 % of control and 106.82 % of control and 97.86 % of control and 85.14 % of control"},
      {"measurement": "'bottom' of the IC50 curve, DISCo-BRET NBD/Nluc", "setting": "[2]; percentage of binding obtained in the absence of competing ligand", "result": 2.7, "unit": "%"},
      {"measurement": "'bottom' of the IC50 curve, DISCo-BRET SulfoCy5/NBD", "setting": "[2]; percentage of binding obtained in the absence of competing ligand, 100 nM TUG-2591 and […] TUG-2597", "result": 25, "unit": "%"},
      {"measurement": "pKi DISCo-BRET NBD/Nluc", "setting": "[2]; using Kd TUG-2597 380 nM", "result": "7.3±0.2"},
      {"measurement": "internalization of FFA1-Nluc", "setting": "[3]", "result": "No internalization"}
    ]}
  ]
}
